Experiments:
Format in all cases: functional
[1] = Competitive antagonism of Angiotensin II receptor in endothelium removed isolated rat aortic ring; (n = 5); conditions: read-out: pA2 (converted)
[2] = Competitive antagonism of Angiotensin II receptor in endothelium removed isolated rat aortic ring
[3] = Noncompetitive antagonism of Angiotensin II receptor in endothelium removed isolated rat aortic ring
[4] = Noncompetitive antagonism of Angiotensin II receptor in endothelium removed isolated rat aortic ring; (n = 5); conditions: read-out: pA2 (converted)

| Structure (SMILES) | Kb [1] | pA10 [2] | pA10 [3] | Kb [4] |
| --- | --- | --- | --- | --- |
| CCOc1nc2cccc(C(=O)O)c2n1Cc1ccc(-c2ccccc2-c2nnn[nH]2)cc1 [CANDESARTAN] | 9.55 nM | 7.1 | – | – |
| CCCCc1nc2c([N+](=O)[O-])cccc2n1Cc1ccc(-c2ccccc2C(=O)O)cc1 | – | – | 1.8 | 3.16 nM |
| CCCCc1nc(Cl)c(CO)n1Cc1ccc(-c2ccccc2-c2nnn[nH]2)cc1 [LOSARTAN] | 39.8 nM | 6.5 | – | – |
| CCCCc1nc2ccccc2n1Cc1ccc(-c2ccccc2C(=O)O)cc1 | 355 nM | 5.81 | – | – |
| CCOCc1nc2c([N+](=O)[O-])cccc2n1Cc1ccc(-c2ccccc2C(=O)O)cc1 | – | – | 1.7 | 50.1 nM |
| CCc1nc2c([N+](=O)[O-])cccc2n1Cc1ccc(-c2ccccc2C(=O)O)cc1 | – | – | 3.4 | 100 nM |
| CCCc1nc2c([N+](=O)[O-])cccc2n1Cc1ccc(-c2ccccc2C(=O)O)cc1 | – | – | 2.9 | 79.4 nM |
| CCCCc1nc2c(N)cccc2n1Cc1ccc(-c2ccccc2C(=O)O)cc1 | 15.8 nM | 6.9 | – | – |

From ChEMBL document CHEMBL1142804, “Design, synthesis, and evaluation of novelly substituted benzimidazole compounds as angiotensin II receptor antagonists” (Bioorg Med Chem Lett, 2005)
